According to patent US11629171B2, “Beta-hairpin peptidomimetics” (POLYPHOR AG, priority 2017, dated 2023):
Converted amounts (≈) assume the structure as drawn. Where a SMILES comes first, the peptide text is derived from it. Bridges are numbered along the chain shown (N, C = ends). Roman numbers before positions name the chains, in order. [ ]: non-standard residue; d: D form. Thr(ol) = C[C@@H](O)[C@H](N)CO; pGlu = O=C1CC[C@@H](C(=O)O)N1; Tle = CC(C)(C)[C@H](N)C(=O)O; dOrn = NCCC[C@@H](N)C(=O)O; dDab = NCC[C@@H](N)C(=O)O; hSer = N[C@@H](CCO)C(=O)O; Orn = NCCC[C@H](N)C(=O)O; Dab = NCC[C@H](N)C(=O)O; Dap = NC[C@H](N)C(=O)O

Experiments:
Format in all cases: cell-based
[1] = system: Acinetobacter baumannii 872842; settings: 872842
Summary of the method: (§1)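 Cation-adjusted MH-II broth, 0.002% polysorbate 80, inoculum near 10^6 CFU/mL. MIC read visually after 18-20 h, 35° C; units μg/mL.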

[2] = system: Acinetobacter baumannii DSM 30008; settings: DSM 30008
Summary of the method: as §1

[3] = system: Enterobacter cloacae 848840; settings: 848840
Summary of the method: as §1

Escherichia coli 926415 = settings: 926415
Summary of the method: as §1

[4] = system: Escherichia coli ATCC 25922; settings: ATCC 25922
Summary of the method: as §1

[5] = system: Klebsiella pneumoniae 968733; settings: 968733
Summary of the method: as §1

[6] = system: Klebsiella pneumoniae SSI #3010; settings: SSI #3010
Summary of the method: as §1

[7] = system: Pseudomonas aeruginosa ATCC 27853; settings: ATCC 27853
Summary of the method: as §1

[8] = system: human red blood cells (hRBC); test: Hemolysis; settings: red cells of human, 1 h, 200
Summary of the method: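 Washed fresh human RBC (20% v/v) incubated with peptide at 200 μg/mL for 1 h at 37° C with shaking. Supernatant OD540 measured after dilution, blank corrected; percent hemolysis = OD540 peptide / OD540 of 2% Triton X-100 lysis × 100, PBS with 10% water as 0%.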

Structure (SMILES) | MIC [1] | MIC [2] | MIC [3] | MIC (Escherichia coli 926415) | MIC [4] | MIC [5] | MIC [6] | MIC [7] | Hemolysis at 200 μg/mL [8] | Acinetobacter baumannii DSM 30008 MIC [2] | Escherichia coli ATCC 25922 MIC [4] | Klebsiella pneumoniae SSI #3010 MIC [6] | Pseudomonas aeruginosa ATCC 27853 MIC [7]
CC(=O)N[C@H](C(=O)N[C@H]1CCCNC(=O)[C@@H](CCCN)NC(=O)[C@H](C(C)(C)C)NC(=O)[C@H](CO)NC(=O)[C@H](Cc2c[nH]c3ccccc23)NC(=O)[C@H](CCO)NC(=O)[C@@H](CCN)NC(=O)[C@H](CCC(=O)N[C@@H](CCN)C(=O)N[C@H](C(=O)N[C@@H](CN)C(=O)N[C@H]2CCNC(=O)[C@H]([C@@H](C)O)NC(=O)[C@H](CCN)NC(=O)[C@H](CCN)NC(=O)[C@H](CC(C)C)NC(=O)[C@@H](CC(C)C)NC(=O)[C@H](CCN)NC2=O)[C@@H](C)O)NC(=O)[C@H](CO)NC(=O)[C@H](Cc2ccc(O)cc2)NC1=O)C(C)C [Ex. 29] (I: Ac-V[Orn]YSE[dDab][hSer]WS[Tle][dOrn] / II: [Dab]T[Dap][Dab][Dab][dL]L[Dab][Dab]T; lactam I:2-I:C, II:4-II:C; amide I:5-II:N) | 1 µg/mL (≈ 0.428 µM) | 0.125 µg/mL (≈ 0.0536 µM) | 0.0625 µg/mL (≈ 0.0268 µM) | 4 µg/mL (≈ 1.71 µM) | 0.0625 µg/mL (≈ 0.0268 µM) | 8 µg/mL (≈ 3.43 µM) | 0.125 µg/mL (≈ 0.0536 µM) | 0.25 µg/mL (≈ 0.107 µM) | 1% | – | – | – | –
CC(=O)N[C@H](C(=O)N[C@H]1CSSC[C@@H](C(N)=O)NC(=O)[C@H](C(C)C)NC(=O)[C@H](CCO)NC(=O)[C@H](Cc2c[nH]c3ccccc23)NC(=O)[C@H](CCO)NC(=O)[C@@H](CCN)NC(=O)[C@H](CCC(=O)N[C@@H](CCN)C(=O)N[C@H](C(=O)N[C@@H](CCN)C(=O)N[C@H]2CCNC(=O)[C@H]([C@@H](C)O)NC(=O)[C@H](CCN)NC(=O)[C@H](CCN)NC(=O)[C@H](CC(C)C)NC(=O)[C@@H](CC(C)C)NC(=O)[C@H](CCN)NC2=O)[C@@H](C)O)NC(=O)[C@H](CCN)NC(=O)[C@H](Cc2ccc(O)cc2)NC1=O)C(C)C [Example 6] (I: Ac-VCY[Dab]E[dDab][hSer]W[hSer]VC-NH2 / II: [Dab]T[Dab][Dab][Dab][dL]L[Dab][Dab]T; disulfide I:2-I:11; amide I:5-II:N; lactam II:4-II:C) | 4 µg/mL (≈ 1.7 µM) | 0.125 µg/mL (≈ 0.0531 µM) | 4 µg/mL (≈ 1.7 µM) | 0.5 µg/mL (≈ 0.212 µM) | 0.125 µg/mL (≈ 0.0531 µM) | 0.5 µg/mL (≈ 0.212 µM) | 0.25 µg/mL (≈ 0.106 µM) | 0.125 µg/mL (≈ 0.0531 µM) | 2% | – | – | – | –
CC(=O)N[C@H](C(=O)N[C@H]1CSSC[C@@H](C(=O)NCC(=O)N[C@H](CO)C(N)=O)NC(=O)[C@H](C(C)C)NC(=O)[C@H](CO)NC(=O)[C@H](Cc2c[nH]c3ccccc23)NC(=O)[C@H](CO)NC(=O)[C@@H](CCN)NC(=O)[C@H](CCC(=O)N[C@@H](CCN)C(=O)N[C@H](C(=O)N[C@@H](CN)C(=O)N[C@H]2CCNC(=O)[C@H]([C@@H](C)O)NC(=O)[C@H](CCN)NC(=O)[C@H](CCN)NC(=O)[C@H](CC(C)C)NC(=O)[C@@H](CC(C)C)NC(=O)[C@H](CCN)NC2=O)[C@@H](C)O)NC(=O)[C@H](CCN)NC(=O)[C@H](Cc2ccc(O)cc2)NC1=O)C(C)C [Ex. 377] (I: Ac-VCY[Dab]E[dDab]SWSVCG[dS]-NH2 / II: [Dab]T[Dap][Dab][Dab][dL]L[Dab][Dab]T; disulfide I:2-I:11; amide I:5-II:N; lactam II:4-II:C) | 0.0625 µg/mL (≈ 0.0254 µM) | – | 0.0625 µg/mL (≈ 0.0254 µM) | 0.125 µg/mL (≈ 0.0509 µM) | – | 0.0625 µg/mL (≈ 0.0254 µM) | – | – | <1% | 0.01562 µg/mL | 0.01562 µg/mL | 0.03125 µg/mL | 0.0625 µg/mL
CC(=O)N[C@H](C(=O)N[C@H]1CCNC(=O)CC[C@@H](C(=O)N[C@@H](CO)C(N)=O)NC(=O)[C@H](C(C)(C)C)NC(=O)[C@H](CO)NC(=O)[C@H](Cc2c[nH]c3ccccc23)NC(=O)[C@H](CO)NC(=O)[C@@H](CCN)NC(=O)[C@H](CCC(=O)N[C@@H](CCN)C(=O)N[C@H](C(=O)N[C@@H](CN)C(=O)N[C@H]2CCNC(=O)[C@H]([C@@H](C)O)NC(=O)[C@H](CCN)NC(=O)[C@H](CCN)NC(=O)[C@H](CC(C)C)NC(=O)[C@@H](CC(C)C)NC(=O)[C@H](CCN)NC2=O)[C@@H](C)O)NC(=O)[C@H](CN)NC(=O)[C@H](Cc2ccc(O)cc2)NC1=O)C(C)C [Ex. 146] (I: Ac-V[Dab]Y[Dap]E[dDab]SWS[Tle]ES-NH2 / II: [Dab]T[Dap][Dab][Dab][dL]L[Dab][Dab]T; lactam I:2-I:11, II:4-II:C; amide I:5-II:N) | 0.125 µg/mL (≈ 0.052 µM) | 0.0625 µg/mL (≈ 0.026 µM) | 0.25 µg/mL (≈ 0.104 µM) | 0.25 µg/mL (≈ 0.104 µM) | 0.0625 µg/mL (≈ 0.026 µM) | 0.25 µg/mL (≈ 0.104 µM) | 0.0625 µg/mL (≈ 0.026 µM) | 0.125 µg/mL (≈ 0.052 µM) | <1% | – | – | – | –
CC(C)C[C@@H]1NC(=O)[C@@H](CC(C)C)NC(=O)[C@H](CCN)NC(=O)[C@@H](NC(=O)[C@H](CCN)NC(=O)[C@@H](NC(=O)[C@H](CCN)NC(=O)CC[C@@H]2NC(=O)[C@H](CCN)NC(=O)[C@H](Cc3ccc(O)cc3)NC(=O)[C@@H](NC(=O)[C@@H]3CCC(=O)N3)CSSC[C@@H](C(=O)N[C@H](CO)[C@@H](C)O)NC(=O)[C@H](C(C)(C)C)NC(=O)[C@H](CO)NC(=O)[C@H](Cc3c[nH]c4ccccc34)NC(=O)[C@H](CCO)NC(=O)[C@@H](CCN)NC2=O)[C@@H](C)O)CCNC(=O)[C@H]([C@@H](C)O)NC(=O)[C@H](CCN)NC(=O)[C@H](CCN)NC1=O [Ex. 77] (I: [pGlu]CY[Dab]E[dDab][hSer]WS[Tle]C[Thr(ol)] / II: [Dab]T[Dab][Dab][Dab][dL]L[Dab][Dab]T; disulfide I:2-I:11; amide I:5-II:N; lactam II:4-II:C) | 0.25 µg/mL (≈ 0.104 µM) | 0.125 µg/mL (≈ 0.0518 µM) | 0.25 µg/mL (≈ 0.104 µM) | 0.25 µg/mL (≈ 0.104 µM) | 0.125 µg/mL (≈ 0.0518 µM) | 0.25 µg/mL (≈ 0.104 µM) | 0.125 µg/mL (≈ 0.0518 µM) | 0.125 µg/mL (≈ 0.0518 µM) | <1% | – | – | – | –
CC(=O)N[C@H](C(=O)N[C@H]1CSSC[C@@H](C(=O)N[C@@H](CO)C(N)=O)NC(=O)[C@H](C(C)(C)C)NC(=O)[C@H](CO)NC(=O)[C@H](Cc2c[nH]c3ccccc23)NC(=O)[C@H]([C@@H](C)O)NC(=O)[C@@H](CCN)NC(=O)[C@H](CCC(=O)N[C@@H](CCN)C(=O)N[C@H](C(=O)N[C@@H](CCN)C(=O)N[C@H]2CCNC(=O)[C@H]([C@@H](C)O)NC(=O)[C@H](CCN)NC(=O)[C@H](CCN)NC(=O)[C@H](CC(C)C)NC(=O)[C@@H](CC(C)C)NC(=O)[C@H](CCN)NC2=O)[C@@H](C)O)NC(=O)[C@H](CCN)NC(=O)[C@H](Cc2ccc(O)cc2)NC1=O)C(C)C [Ex. 44] (I: Ac-VCY[Dab]E[dDab]TWS[Tle]CS-NH2 / II: [Dab]T[Dab][Dab][Dab][dL]L[Dab][Dab]T; disulfide I:2-I:11; amide I:5-II:N; lactam II:4-II:C) | 0.125 µg/mL (≈ 0.0512 µM) | 0.125 µg/mL (≈ 0.0512 µM) | 0.125 µg/mL (≈ 0.0512 µM) | 0.125 µg/mL (≈ 0.0512 µM) | 0.0625 µg/mL (≈ 0.0256 µM) | 0.25 µg/mL (≈ 0.102 µM) | 0.125 µg/mL (≈ 0.0512 µM) | 0.125 µg/mL (≈ 0.0512 µM) | <1% | – | – | – | –
CC(=O)N[C@H](C(=O)N[C@H]1CSSC[C@@H](C(=O)N[C@H](C(N)=O)[C@@H](C)O)NC(=O)[C@H](C(C)C)NC(=O)[C@H](CO)NC(=O)[C@H](Cc2c[nH]c3ccccc23)NC(=O)[C@H](CCN)NC(=O)[C@@H](CCN)NC(=O)[C@H](CCC(=O)N[C@@H](CCN)C(=O)N[C@H](C(=O)N[C@@H](CN)C(=O)N[C@H]2CCNC(=O)[C@H]([C@@H](C)O)NC(=O)[C@H](CCN)NC(=O)[C@H](CCN)NC(=O)[C@H](CC(C)C)NC(=O)[C@@H](CC(C)C)NC(=O)[C@H](CCN)NC2=O)[C@@H](C)O)NC(=O)[C@H](CO)NC(=O)[C@H](Cc2ccc(O)cc2)NC1=O)C(C)C [Ex. 267] (I: Ac-VCYSE[dDab][Dab]WSVCT-NH2 / II: [Dab]T[Dap][Dab][Dab][dL]L[Dab][Dab]T; disulfide I:2-I:11; amide I:5-II:N; lactam II:4-II:C) | 0.0625 µg/mL (≈ 0.0259 µM) | 0.0625 µg/mL (≈ 0.0259 µM) | 0.125 µg/mL (≈ 0.0518 µM) | 0.0625 µg/mL (≈ 0.0259 µM) | 0.03125 µg/mL (≈ 0.013 µM) | 0.125 µg/mL (≈ 0.0518 µM) | 0.0625 µg/mL (≈ 0.0259 µM) | 0.0625 µg/mL (≈ 0.0259 µM) | <1% | – | – | – | –
